Consider one compound from ChEMBL document CHEMBL4673207, “Recent advances in the discovery of potent and selective HDAC6 inhibitors” (Eur J Med Chem, 2018).

In one assay the test system is HEK293T. In words: Selectivity ratio of IC50 for Flag-tagged HDAC1 (unknown origin) expressed in 293T cells to IC50 for Flag-tagged HDAC6 (unknown origin) expressed in 293T cells. The class given is cell-based. As to conditions: Homo sapiens.
In another assay the target is Histone deacetylase 1 (Homo sapiens, UniProt Q13547). Description: Inhibition of Flag-tagged HDAC1 (unknown origin) expressed in 293T cells using ZMAL as substrate incubated for 180 mins by fluorescence method. Set-up: species or system HEK293T.
Sequence of Histone deacetylase 1 (Q13547 whole entry): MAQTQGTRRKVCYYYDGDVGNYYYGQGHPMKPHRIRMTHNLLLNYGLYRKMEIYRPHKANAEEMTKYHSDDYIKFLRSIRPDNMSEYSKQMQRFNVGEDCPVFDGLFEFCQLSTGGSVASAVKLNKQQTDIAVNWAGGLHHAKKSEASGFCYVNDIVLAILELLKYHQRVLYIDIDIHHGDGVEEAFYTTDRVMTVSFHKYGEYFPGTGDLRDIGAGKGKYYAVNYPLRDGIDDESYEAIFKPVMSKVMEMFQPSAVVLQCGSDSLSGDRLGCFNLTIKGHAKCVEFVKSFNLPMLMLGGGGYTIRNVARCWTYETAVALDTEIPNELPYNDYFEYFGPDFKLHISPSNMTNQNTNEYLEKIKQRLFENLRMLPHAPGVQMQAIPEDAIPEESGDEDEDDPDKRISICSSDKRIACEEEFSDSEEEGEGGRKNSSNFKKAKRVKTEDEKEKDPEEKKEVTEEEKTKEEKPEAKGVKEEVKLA
The subject of another assay is MCF7. Description: Antiproliferative activity against human MCF7 incubated for 72 hrs by MTT assay. The class given is functional. In general terms: Formazan colour is commonly taken as a measure of viable cells.
The target of assay [1] is T1, Protein deacetylase HDAC6 (Homo sapiens, UniProt Q9UBN7).
T1 sequence (Q9UBN7 whole entry): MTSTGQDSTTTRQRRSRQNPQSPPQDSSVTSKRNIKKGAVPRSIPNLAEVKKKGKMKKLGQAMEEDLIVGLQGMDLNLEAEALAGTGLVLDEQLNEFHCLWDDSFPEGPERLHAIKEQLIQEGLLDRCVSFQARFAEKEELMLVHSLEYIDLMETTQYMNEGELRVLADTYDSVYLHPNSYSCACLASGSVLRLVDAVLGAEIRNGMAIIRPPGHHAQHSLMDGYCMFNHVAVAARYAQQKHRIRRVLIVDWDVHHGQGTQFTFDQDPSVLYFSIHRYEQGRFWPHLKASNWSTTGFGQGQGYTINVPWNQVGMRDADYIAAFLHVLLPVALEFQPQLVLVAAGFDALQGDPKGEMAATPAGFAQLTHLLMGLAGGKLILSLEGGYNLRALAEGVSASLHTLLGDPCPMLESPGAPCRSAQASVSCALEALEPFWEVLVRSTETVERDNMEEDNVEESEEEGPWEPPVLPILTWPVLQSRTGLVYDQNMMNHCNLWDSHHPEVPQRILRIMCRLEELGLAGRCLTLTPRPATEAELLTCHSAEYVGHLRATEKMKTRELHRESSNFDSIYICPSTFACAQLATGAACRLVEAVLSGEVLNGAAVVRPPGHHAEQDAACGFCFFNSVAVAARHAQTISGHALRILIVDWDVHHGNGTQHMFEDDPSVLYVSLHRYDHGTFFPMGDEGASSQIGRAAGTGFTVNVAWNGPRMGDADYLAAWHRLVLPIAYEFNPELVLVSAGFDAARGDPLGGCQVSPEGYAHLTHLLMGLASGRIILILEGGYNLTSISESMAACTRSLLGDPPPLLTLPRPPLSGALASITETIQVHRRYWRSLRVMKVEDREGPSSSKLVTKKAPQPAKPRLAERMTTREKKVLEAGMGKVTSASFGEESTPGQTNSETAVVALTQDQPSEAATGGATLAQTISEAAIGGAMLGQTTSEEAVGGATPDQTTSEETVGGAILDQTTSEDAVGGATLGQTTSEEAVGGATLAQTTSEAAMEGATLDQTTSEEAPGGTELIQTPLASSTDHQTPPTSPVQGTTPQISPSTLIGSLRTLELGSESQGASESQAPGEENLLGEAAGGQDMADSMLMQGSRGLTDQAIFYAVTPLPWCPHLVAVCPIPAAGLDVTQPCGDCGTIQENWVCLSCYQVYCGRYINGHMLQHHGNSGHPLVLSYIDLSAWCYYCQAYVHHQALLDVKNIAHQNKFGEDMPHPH
Description: Inhibition of Flag-tagged HDAC6 (unknown origin) expressed in 293T cells using ZMAL as substrate incubated for 180 mins by fluorescence method. Further details: species or system HEK293T.

Each structure is given as a SMILES string.

The IC50 is the concentration needed to halve the response being measured. Low values mean greater potency in that assay, high ones weaker potency in that assay. As a reminder, the GI50 is the concentration that inhibits growth by half. Read a high GI50 as lower sensitivity of the cells. Regarding `COC(=O)[C@H](Cc1ccccn1)NC(=O)CCCCCCC(=O)NO`, in the assay with HEK293T, the Ratio IC50 came out at 25. Also, the IC50 against Histone deacetylase 1 is 100 µM; in assay [1], 3.97 µM. Further, the GI50 in the assay with MCF7 was 104 µM.
